From patent publication US12054447B2, “PCNA inhibitors” (City of Hope, priority 2015, dated 2024) come the findings set out here.

In one test the test system is SK-N-AS. The test can be described thus: Cell growth, CellTitor-Glo assay, 72 h. Format: cell-based. The following applies: Homo sapiens. The procedure: (§1) The human NB cell lines, SK-N-DZ, SK-N-BE(2)c, SK-N-AS, and LAN-5 obtained from the American Type Culture Collection (Rockville, MD), were cultured in DMEM with 10% fetal bovine serum (FBS), 100 units/ml penicillin, and 100 μg/ml streptomycin in the presence of 5% CO2 at 37° C. Human PBMCs from a healthy donor were purchased from Sanguine BioSciences (Valencia, CA) and grown in RPMI1640 with 10% FBS, 100 units/ml penicillin, 100 μg/ml streptomycin, and 10 ng/ml IL-2 in the presence of 5% CO2 at 37° C. Human embryonic progenitor cell line 7SM0032 was acquired from Millipore (Billerica, MA) and grown in the hEPM-1 Media Kit purchased from the same company. The plasmid pCBASce expresses the rare cutting I-SceI meganuclease. The U20S-derived cell lines, DR-GFP and EJ5-GFP, each contain a stably transfected reporter gene for DSB repair mediated by HR and end joining (EJ), respectively. These cell lines were cultured in DMEM medium with 10% FBS at 37° C. in the presence of 5% CO2.
(§2) To measure the effect of the compounds on cell growth, cells were seeded at 3×10^4/ml into a 96-well plate. Once attached, cells were treated with various concentrations of AOH1160 for 72 h. Cell growth was measured by the CellTitor-Glo assay (Promega, Madison, WI) according to the manufacturer's instructions. To measure apoptosis, cells were seeded at 1×10^5/ml onto a chamber slide. Once attached, cells were treated with the 500 nM AOH1160 for 24 h. Cells were fixed and analyzed by a TUNEL assay using the TMR red in situ cell death detection kit (Roche Diagnostics, Indianapolis, IN).

The next test deals with neuroblastoma cell lines. Description: IC50 in Table 3, cell line not stated. Type of test: cell-based. The following applies: Homo sapiens. The text has this: In addition numerous analogs related to AOH1160 were screened in numerous neuroblastoma cell lines for anti-cancer activity (Table 2). AOH1160 was screened for anti-cancer activity in additional cancer cell lines besides neuroblastoma (Table 3).

For another test, the system named is SK-N-BE(2)c. Description: Cell growth, CellTitor-Glo assay, 72 h. Format: cell-based. As to conditions: Homo sapiens. On the procedure:
as §1, §2

The test system of a further test is SK-N-DZ. The test can be described thus: Cell growth, CellTitor-Glo assay, 72 h. Format: cell-based. As to conditions: Homo sapiens. The procedure:
as §1, §2

In the next test the test system is PBMC. The test can be described thus: Cell growth, CellTitor-Glo assay, 72 h. Type of test: cell-based, human. On the procedure:
as §1, §2

The subject of the next test is 7SM0032. The test can be described thus: Cell growth, CellTitor-Glo assay, 72 h. Format: cell-based, human. The following applies: human neural crest stem cells (7SM0032). The procedure: as §1, §2
Another test relates to NB cell lines. The test can be described thus: Cell viability assay on NB cell lines. Format: cell-based, human. The following applies: Homo sapiens; multiple NB cell lines; read-out: IC50 range over NB cell lines. On the procedure:
as §2
To identify small molecule compounds that target the PCNA and FEN1 interface, we started with known crystal structures of the PCNA/FEN1 complex that are available from the RCSB protein database. To improve the likelihood of identifying novel small molecules that specifically target caPCNA, we focused our virtual screen on the binding pocket in PCNA delineated by residues L126 and Y133 and screened databases consisting of more than 6.8 million chemical structures available at the AMRI. A set of 57 compounds identified by the virtual screen was acquired and further tested in a cell viability assay. A compound (AOH39) was selected for further development due to its anti-cancer activity and selectivity.

pIC50: −log10 of the molar value.

For orientation: pIC50 means −log10 of the IC50, conventionally taken in molar units.

Consider `O=C(CNC(=O)c1nccc2ccccc12)Nc1cccc(Oc2ccncc2)c1` [#1166], for which the pIC50 with SK-N-AS is under 4.52; with neuroblastoma cell lines it was 4.47.
For the molecule `O=C(CNC(=O)c1cccc2ccccc12)Nc1ccc(Cl)cc1Oc1ccccc1` [PCNA4], the pIC50 in the test with SK-N-AS is 6.73; with SK-N-BE(2)c, 6.30; with SK-N-DZ, 6.35; in the test with PBMC (Homo sapiens, PBMC (non-malignant)), under 4.70.
Regarding `O=C(CNC(=O)c1cccc2ccccc12)Nc1ccc(Oc2ccncc2)cc1` [#1178], the pIC50 with SK-N-AS and in the test with neuroblastoma cell lines was 5.96 in each case.
Turning to `O=C(CNC(=O)c1cncc2ccccc12)Nc1ccc(Oc2ccncc2)cc1` [AOH1180], the pIC50 with SK-N-AS and in the test with neuroblastoma cell lines was under 4.52 throughout.
Turning to `O=C(CNC(=O)c1cncc2ccccc12)Nc1ccccc1Oc1ccccc1` [#1175], the negative-log IC50 (pIC50) with SK-N-AS and in the test on neuroblastoma cell lines was under 4.52 in each case.
As for `O=C(CNC(=O)c1cccc2ccccc12)Nc1ccccc1Cc1ccccc1` [AOH39, N-(2-((2-benzylphenyl)amino)-2-oxoethyl)-1-naphthamide, reference compound], the negative logarithm of the IC50 (pIC50) in the test on 7SM0032 was about 4.00; in the test with PBMC (human peripheral blood mononuclear cells (PBMC)), 4.81; in the test with NB cell lines it was 5.55 to 5.89.
Molecule `O=C(CNC(=O)c1cncc2ccccc12)Nc1ccccc1Oc1ccncc1` [#1177] had a negative logarithm of the IC50 (pIC50) with neuroblastoma cell lines of under 4.52.
Turning to `O=C(CNC(=O)c1cncc2ccccc12)Nc1cccc(Oc2ccncc2)c1` [#1176], the negative logarithm of the IC50 (pIC50) in the test on SK-N-AS was under 4.52.
As for `O=C(CNC(=O)c1nccc2ccccc12)Nc1ccccc1Oc1ccccc1` [#1165], the pIC50 in the test with SK-N-AS and in the test with neuroblastoma cell lines was 4.46 throughout.
`O=C(CNC(=O)c1nccc2ccccc12)Nc1ccccc1Oc1ccncc1` [#1167] had a negative-log IC50 (pIC50) in the test with neuroblastoma cell lines of 5.38.
As for `O=C(CNC(=O)c1cccc2ccccc12)Nc1ccccc1Oc1ccncc1` [#1162], the pIC50 in the test with SK-N-AS and with neuroblastoma cell lines was under 4.30 throughout.
`O=C(CNC(=O)c1nccc2ccccc12)Nc1ccc(Oc2ccncc2)cc1` [AOH1179]: the pIC50 with SK-N-AS and with neuroblastoma cell lines was under 4.52 throughout.
Take `O=C(CNC(=O)c1cccc2ccccc12)Nc1cccc(Oc2ccncc2)c1` [#1161]: the negative-log IC50 (pIC50) in the test with SK-N-AS and in the test on neuroblastoma cell lines was 4.67 in each case.
